Here are results for 40 molecules from patent US9815835B2, “Substituted polycyclic carbamolypyridone derivative” (priority 2009, dated 2017).

pEC50, pIC50: −log10 of the molar value.

The test system of one assay is influenza virus. The assay is described as follows: microbe, parasite or virus in culture. In kind it is cell-based, influenza virus (MDBK or MDCK cells). The conditions noted are these: unidentified influenza virus, 72 h, read-out: CPE EC50, effective concentration to achieve 50% CPE inhibition, 3 days incubation, WST-8.
The target of assay [1] is cap-dependent endonuclease (RNP fraction containing PB1•PB2•PA complex) (Influenza A virus, UniProt P15659). The experiment in a line: biochemical. The following applies: RNP from A/WSN/33 virus, capped Cy3/BHQ2 30mer RNA substrate, 60 minutes at room temperature; read-out: CEN IC50.

One may read the pIC50 as the negative decadic logarithm of the IC50, by convention in mol/L. For the molecule `CC(C)CN1CC(N2CN(C3c4ccccc4CCc4ccccc43)n3ccc(=O)c(O)c3C2=O)C1` [Example 248], in the assay on influenza virus, the pEC50 was 6.31. Moreover, in assay [1], the negative logarithm of the IC50 (pIC50) is 6.99.
For the molecule `CC(C)N1CC(N2CN(C3c4ccccc4CCc4ccccc43)n3ccc(=O)c(O)c3C2=O)C1` [Example 249], in the assay with influenza virus, the pEC50 was 5.72. Also, in assay [1], the negative-log IC50 (pIC50) was 6.82.
Take `CN1CC[C@@H](N2CN(C3c4ccccc4CCc4ccccc43)n3ccc(=O)c(O)c3C2=O)C1` [Example 250]: in the assay on influenza virus, the pEC50 was 6.32. For the same molecule, the pIC50 in assay [1] was 6.95.
Consider `CS(=O)(=O)N1CC[C@@H](N2CN(C3c4ccccc4CCc4ccccc43)n3ccc(=O)c(O)c3C2=O)C1` [Example 251], for which, in the assay on influenza virus, the pEC50 is 6.80. Besides, the negative-log IC50 (pIC50) in assay [1] is 7.24.
In the same order, the values of `CC(C)N1CC[C@@H](N2CN(C3c4ccccc4CCc4ccccc43)n3ccc(=O)c(O)c3C2=O)C1` [Example 252] are 6.34 and 6.97.
The matching figures for `CN1CCC(N2CN(C3c4ccccc4CCc4ccccc43)n3ccc(=O)c(O)c3C2=O)CC1` [Example 253]: 6.55 and 6.63.
The matching figures for `O=C1c2c(O)c(=O)ccn2N(C2c3ccccc3CCc3ccccc32)CN1[C@@H]1CCN(CCO)C1` [Example 254]: 6.25 and 6.87.
For `Cc1cc(CN2CN(C3c4ccccc4CCc4ccccc43)n3ccc(=O)c(O)c3C2=O)no1` [Example 255], the pEC50 in the assay with influenza virus was 6.50. In addition, the pIC50 in assay [1] is 7.28.
Take `O=C1c2c(O)c(=O)ccn2N(C2c3ccccc3CCc3ccccc32)CN1CCCF` [Example 257]: in the assay on influenza virus, the pEC50 is 7.26. Moreover, in assay [1], the negative logarithm of the IC50 (pIC50) was 7.39.
In the same order, the values of `O=C1c2c(O)c(=O)ccn2N(C2c3ccccc3CCc3ccccc32)CN1CC(F)F` [Example 259] are 7.59 and 7.18.
As to `CCC(COC)N1CN(C2c3ccccc3CCc3ccccc32)n2ccc(=O)c(O)c2C1=O` (centres unmarked) [Example 260], the pEC50 in the assay with influenza virus is 7.19. Besides, the negative logarithm of the IC50 (pIC50) in assay [1] is 7.04.
In the same order, the values of `O=C1c2c(O)c(=O)ccn2N(C2c3ccccc3CCc3ccccc32)CN1Cc1ccccn1` [Example 264] are 6.89 and 7.19.
As to `CCN1CN(C2c3ccccc3CCc3ccccc32)n2ccc(=O)c(O)c2C1=O` [Example 266], the pEC50 with influenza virus is 7.07. Further, the negative-log IC50 (pIC50) in assay [1] was 7.37.
The matching figures for `CCOCCN1CN(C2c3ccccc3CCc3ccccc32)n2ccc(=O)c(O)c2C1=O` [Example 268]: 7.13 and 7.74.
The matching figures for `O=C1c2c(O)c(=O)ccn2N(C2c3ccccc3CCc3ccccc32)CN1Cc1nccs1` [Example 271]: 6.99 and 7.14.
Turning to `CN1CN(C2c3ccccc3CCc3ccccc32)n2ccc(=O)c(O)c2C1=O` [Example 273], in the assay with influenza virus, the pEC50 is 7.08. In addition, the negative logarithm of the IC50 (pIC50) in assay [1] was 7.80.
The matching figures for `O=C1c2c(O)c(=O)ccn2N(C2c3ccccc3CCc3ccccc32)CN1CCOC(F)(F)F` [Example 277]: 7.15 and 7.41.
For `COc1ccc2c(c1)CCc1ccccc1C2N1CN(C(C)C)C(=O)c2c(O)c(=O)ccn21` (centres unmarked) [Example 278], the pEC50 in the assay with influenza virus is 7.13. For the same molecule, the pIC50 in assay [1] was 6.69.
As to `CC(C)N1CN(C2c3cc(Cl)ccc3CCc3ccc(Cl)cc32)n2ccc(=O)c(O)c2C1=O` [Example 280], the pEC50 with influenza virus was 6.84. Also, the negative-log IC50 (pIC50) in assay [1] was 7.17.
In the same order, the values of `CC(C)N1CN(C2c3cccc(F)c3CCc3c(F)cccc32)n2ccc(=O)c(O)c2C1=O` [Example 281] are 7.74 and 7.59.
The matching figures for `CC(C)N1CN(C2c3ccccc3CCc3cc(Cl)ccc32)n2ccc(=O)c(O)c2C1=O` (centres unmarked) [Example 283]: 7.68 and 7.55.
The matching figures for `CC(C)N1CN(C2c3cc(F)ccc3SCc3c(Cl)cccc32)n2ccc(=O)c(O)c2C1=O` (centres unmarked) [Example 285]: 7.77 and 7.36.
As for `O=C1c2c(O)c(=O)ccn2N(C2c3ccccc3CSc3ccccc32)CN1[C@@H]1CCN(CCOCc2ccccc2)C1` (some centres unmarked) [Example 286], the pEC50 with influenza virus is 6.92. Also, the pIC50 in assay [1] was 6.79.
The matching figures for `CN1CC[C@@H](N2CN(C3c4ccccc4CSc4ccccc43)n3ccc(=O)c(O)c3C2=O)C1` (some centres unmarked) [Example 287]: 6.57 and 6.81.
`CN1CCC(N2CN(C3c4ccccc4CSc4ccccc43)n3ccc(=O)c(O)c3C2=O)CC1` (centres unmarked) [Example 288]: the pEC50 with influenza virus was 7.07. Further, the negative logarithm of the IC50 (pIC50) in assay [1] is 6.52.
The matching figures for `O=C1c2c(O)c(=O)ccn2N(C2c3ccccc3CSc3ccccc32)CN1[C@@H]1CCN(CCO)C1` (some centres unmarked) [Example 290]: 6.31 and 7.17.
In the same order, the values of `CN1CCCC(N2CN(C3c4ccccc4CSc4ccccc43)n3ccc(=O)c(O)c3C2=O)C1` (centres unmarked) [Example 293] are 6.36 and 6.54.
In the same order, the values of `O=C1c2c(O)c(=O)ccn2N(C2c3ccccc3CSc3ccccc32)CN1CC(F)F` (centres unmarked) [Example 294] are 7.74 and 7.46.
On to `Cc1nnc(CN2CN(C3c4ccccc4CSc4ccccc43)n3ccc(=O)c(O)c3C2=O)o1` (centres unmarked) [Example 295], for which, in the assay with influenza virus, the pEC50 is 6.48. For the same molecule, in assay [1], the negative logarithm of the IC50 (pIC50) is 7.28.
In the same order, the values of `COc1ccc(N2CN(C3c4ccccc4CSc4ccccc43)n3ccc(=O)c(O)c3C2=O)cc1` (centres unmarked) [Example 296] are 6.40 and 6.89.
In the same order, the values of `COCCN1CN(C2c3ccccc3CSc3ccccc32)n2ccc(=O)c(O)c2C1=O` (centres unmarked) [Example 299] are 7.82 and 7.30.
The matching figures for `COCC(C)N1CN(C2c3ccccc3CSc3ccccc32)n2ccc(=O)c(O)c2C1=O` (centres unmarked) [Example 300]: 7.68 and 7.24.
In the case of `O=C1c2c(O)c(=O)ccn2N(C2c3ccccc3CSc3ccccc32)CN1C1CC1` (centres unmarked) [Example 302], the pEC50 in the assay with influenza virus is 7.85. Besides, the pIC50 in assay [1] was 7.46.
Consider `O=C1c2c(O)c(=O)ccn2N(C2c3ccccc3CSc3ccccc32)CN1CCF` (centres unmarked) [Example 304], for which the pEC50 in the assay with influenza virus is 7.82. Also, the pIC50 in assay [1] was 7.74.
The matching figures for `Cc1cc(CN2CN(C3c4ccccc4CSc4ccccc43)n3ccc(=O)c(O)c3C2=O)no1` (centres unmarked) [Example 305]: 6.99 and 7.23.
The matching figures for `O=C1c2c(O)c(=O)ccn2N(C2c3ccccc3CSc3ccccc32)CN1Cc1ccccn1` (centres unmarked) [Example 307]: 7.02 and 7.28.
As to `CC(C)(C)N1CN(C2c3ccccc3CSc3ccccc32)n2ccc(=O)c(O)c2C1=O` (centres unmarked) [Example 308], in the assay with influenza virus, the pEC50 is 7.72. For the same molecule, in assay [1], the negative-log IC50 (pIC50) is 7.14.
The matching figures for `CCN1CN(C2c3ccccc3CSc3ccccc32)n2ccc(=O)c(O)c2C1=O` (centres unmarked) [Example 309]: 7.89 and 7.40.
With `CS(=O)(=O)CCN1CN(C2c3ccccc3CSc3ccccc32)n2ccc(=O)c(O)c2C1=O` (centres unmarked) [Example 310], the pEC50 in the assay with influenza virus was 6.28. Besides, the pIC50 in assay [1] was 6.97.
On to `COCCCN1CN(C2c3ccccc3CSc3ccccc32)n2ccc(=O)c(O)c2C1=O` (centres unmarked) [Example 311], for which, in the assay with influenza virus, the pEC50 is 7.59. For the same molecule, the negative-log IC50 (pIC50) in assay [1] was 7.40.
